# Experimental data: US20260007133A1, “HERBICIDAL COMPOSITION COMPRISING AZINE COMPOUNDS” (BASF SE, priority 2022, published 2026)
# Read-outs that look alike come from different tables or passages of the source.
# Tests used:
# Type in all cases: in vivo
# Abutilon theophrasti [1] = experiment: Greenhouse pre-emergence (PRE) herbicidal test on ABUTH
# Procedure, shortened: (§1)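 Seeds were sown per species in pots of loamy sand with about 3.0% humus, treated pre-emergence, watered and hooded until rooted. Plants grew at 10-25° C or 20-35° C depending on species. Damage was scored 0-100 (100 = no emergence or above-ground parts destroyed) at 20 DAT.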
# Euphorbia heterophylla = experiment: Greenhouse pre-emergence (PRE) herbicidal test on EPHHL; settings: for inhibition at 200 g/ha: use rate 200 gai/ha
# Procedure, shortened: as §1
# Galium aparine = experiment: Greenhouse pre-emergence (PRE) herbicidal test on GALAP; settings: PRE, GALAP; for inhibition at 200 g/ha: use rate 200 gai/ha
# Excerpt: (§2) The culture containers used were plastic pots containing loamy sand with approximately 3.0% of humus as substrate. The seeds of the test plants were sown separately for each species.
# (§3) For the pre-emergence treatment, the active compounds, suspended or emulsified in water, were applied directly after sowing by means of finely distributing nozzles. The containers were irrigated gently to promote germination and growth and subsequently covered with transparent plastic hoods until the plants had rooted. This cover caused uniform germination of the test plants unless this was adversely affected by the active compounds.
# (§4) Depending on the species, the plants were kept at 10-25° C. and 20-35° C., respectively.
# (§5) The test period extended over 2 to 4 weeks. During this time, the plants were tended and their response to the individual treatments was evaluated.
# (§6) Evaluation was carried out using a scale from 0 to 100. 100 means no emergence of the plants, or complete destruction of at least the above-ground parts, and 0 means no damage or normal course of growth. A good herbicidal activity is given at values of at least 70, and very good herbicidal activity is given at values of at least 85.
# (§7) If not stated differently, the respective components A and B, and if appropriate, C were formulated as a 5% by weight strength emulsion concentrate and, with addition of the amount of solvent system, introduced into the spray liquor used for applying the active compound.
# (§8) As indicated application was either post emergent (POST) at the respective growth stage (GS) of the weed (BBCH code), or pre-emergent (PRE).
# (§9) Assessment was 20 days after treatment (DAT).
# Polygonum convolvulus = experiment: Greenhouse pre-emergence (PRE) herbicidal test on POLCO
# Excerpt: as §2, §3, §4, §5, §6, §7, §8, §9
# Brachiaria decumbens = experiment: Greenhouse pre-emergence (PRE) herbicidal test on BRADC; settings: Urochloa decumbens; for inhibition at 200 g/ha: use rate 200 gai/ha
# Excerpt: as §2, §3, §4, §5, §6, §7, §8, §9
# Alopecurus myosuroides = experiment: Greenhouse pre-emergence (PRE) herbicidal test on ALOMY; settings: Alopecurus myosuroides, pre-emergence
# Procedure, shortened: as §1
# Avena fatua = experiment: Greenhouse pre-emergence (PRE) herbicidal test on AVEFA
# Excerpt: as §2, §3, §4, §5, §6, §7, §8, §9
# Lolium multiflorum = experiment: Greenhouse pre-emergence (PRE) herbicidal test on LOLMU; settings: for inhibition at 200 g/ha: use rate 200 gai/ha
# Procedure, shortened: as §1
# Commelina benghalensis [2] = experiment: Greenhouse pre-emergence (PRE) herbicidal test on COMBE; settings: Commelina benghalensis, pre-emergence
# Procedure, shortened: as §1
# Geranium pusillum [3] = experiment: Greenhouse pre-emergence (PRE) herbicidal test on GERPU; settings: Geranium pusillum, pre-emergence; for inhibition at 200 g/ha: use rate 200 gai/ha
# Excerpt: as §2, §3, §4, §5, §6, §7, §8, §9
# SETFA = experiment: Greenhouse pre-emergence (PRE) herbicidal test on SETFA; settings: Setaria faberi, use rate 50 gai/ha
# Ambrosia artemisiifolia = experiment: Greenhouse pre-emergence (PRE) herbicidal test on AMBEL; settings: PRE, 20 DAT
# AMAPA [4] = experiment: Greenhouse pre-emergence (PRE) herbicidal test on AMAPA; settings: use rate 3.1 gai/ha, 20 DAT
# AMAPA [5] = experiment: Greenhouse post-emergence (POST) herbicidal test on AMAPA; settings: use rate 12.5 gai/ha, 20 DAT
# Commelina benghalensis [6] = experiment: Greenhouse post-emergence (POST) herbicidal test on COMBE; settings: 480 h, use rate 1.25 gai/ha, 20 DAT
# Description: as §2
# (§10) For the post-emergence treatment, the test plants were grown to a plant height of from 3 to 15 cm, depending on the plant habit, and only then treated with the active compounds which had been suspended or emulsified in water. To this end, the test plants were either sown directly, and grown in the same containers, or they were first grown separately as seedlings and transplanted into the test containers a few days prior to treatment.
# as §4, §5, §6, §7, §8, §9
# Digitaria sanguinalis = experiment: Greenhouse post-emergence (POST) herbicidal test on DIGSA; settings: Digitaria sanguinalis, post-emergence, 480 h, POST, DIGSA, 5 gai/ha, 20 DAT; read-out: % activity solo application
# Procedure, shortened: (§11)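 Greenhouse weeds, raised in pots of humus-containing loamy sand, receive a water-based spray of the actives once 3 to 15 cm tall. Damage is rated visually from 0 (none) to 100 (above-ground parts destroyed) 20 days after treatment.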
# Amaranthus retroflexus [7] = experiment: Greenhouse post-emergence (POST) herbicidal test on AMARE; settings: Amaranthus retroflexus, post-emergence, 480 h, POST, AMARE, 20 DAT, read-out: % activity solo application
# Procedure, shortened: as §11
# Amaranthus retroflexus [8] = experiment: Greenhouse pre-emergence (PRE) herbicidal test on AMARE; settings: Amaranthus retroflexus, pre-emergence, 480 h; PRE, AMARE, 1.25 gai/ha, 20 DAT; read-out: % activity solo application
# Procedure, shortened: as §1
# Echinochloa crus-galli = experiment: Greenhouse pre-emergence (PRE) herbicidal test on ECHCG; settings: Echinochloa crus-galli, pre-emergence, 480 h, PRE, ECHCG, 20 DAT, read-out: % activity solo application
# Geranium pusillum [9] = experiment: Greenhouse post-emergence (POST) herbicidal test on GERPU; settings: Geranium pusillum, post-emergence, 480 h, POST, GERPU, 20 DAT
# Procedure, shortened: as §11
# Setaria viridis [10] = experiment: Greenhouse post-emergence (POST) herbicidal test on SETVI; settings: 480 h, use rate 5 gai/ha, 20 DAT
# Description: as §2, §10, §4, §5, §6, §7, §8, §9
# Abutilon theophrasti [11] = experiment: Greenhouse post-emergence (POST) herbicidal test on ABUTH; settings: Abutilon theophrasti, post-emergence, 480 h, POST, ABUTH, 20 DAT, read-out: % activity solo application
# Procedure, shortened: as §11
# Ipomoea hederacea [12] = experiment: Greenhouse post-emergence (POST) herbicidal test on IPOHE; settings: Ipomoea hederacea, post-emergence, 480 h, POST, IPOHE, 20 DAT, read-out: % activity solo application
# Procedure, shortened: as §11
# Setaria viridis [13] = experiment: Greenhouse pre-emergence (PRE) herbicidal test on SETVI; settings: Setaria viridis, pre-emergence, 480 h, PRE, SETVI, 20 DAT, read-out: % activity solo application
# Procedure, shortened: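 Seeds sown per species in pots of loamy sand with approx. 3.0% humus; compounds suspended or emulsified in water were sprayed via fine nozzles directly after sowing. Pots were watered and hooded until rooted, held at 10-25° C. or 20-35° C. by species, and scored 0–100 (100 = no emergence/complete destruction) 20 DAT.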
# Ipomoea hederacea [14] = experiment: Greenhouse pre-emergence (PRE) herbicidal test on IPOHE; settings: Ipomoea hederacea, pre-emergence, 480 h, PRE, IPOHE, 20 DAT
# Excerpt: as §2, §3, §4, §5, §6, §7, §8, §9
smiles,measurement,setting,value
"CC1(C)CON(Cc2ccc(Cl)cc2Cl)C1=O [Bixlozone, bixlozone]",% activity,"Abutilon theophrasti [1]; PRE, ABUTH, use rate 60 gai/ha",0%
same,% activity,"Euphorbia heterophylla; PRE, EPPHL, use rate 15 gai/ha",0%
same,% activity,"Euphorbia heterophylla; PRE, EPPHL, use rate 60 gai/ha",0%
same,% activity,Galium aparine; use rate 60 gai/ha,50%
same,% activity,Polygonum convolvulus; use rate 60 gai/ha,0%
"CCCCOCN(C(=O)CCl)c1c(CC)cccc1CC [Butachlor, butachlor]",inhibition at 50 g/ha,"Abutilon theophrasti [1]; Abutilon theophrasti, pre-emergence, ABUTH PRE, use rate 50 gai/ha",0%
same,inhibition at 200 g/ha,Brachiaria decumbens; BRADC PRE,30%
same,inhibition at 200 g/ha,"Euphorbia heterophylla; Euphorbia heterophylla, pre-emergence, EPHHL PRE",5%
same,inhibition at 200 g/ha,"Alopecurus myosuroides; ALOMY PRE, use rate 200 gai/ha",0%
same,inhibition at 50 g/ha,Avena fatua; use rate 50 gai/ha,0%
same,inhibition at 200 g/ha,Avena fatua; use rate 200 gai/ha,0%
same,inhibition at 50 g/ha,"Lolium multiflorum; Lolium multiflorum, pre-emergence, LOLMU PRE, use rate 50 gai/ha",0%
same,inhibition at 200 g/ha,"Lolium multiflorum; Lolium multiflorum, pre-emergence, LOLMU PRE",0%
same,inhibition at 50 g/ha,"Commelina benghalensis [2]; COMBE PRE, use rate 50 gai/ha",70%
same,inhibition at 50 g/ha,"Geranium pusillum [3]; GERPU PRE, use rate 50 gai/ha",55%
same,inhibition at 200 g/ha,Geranium pusillum [3]; GERPU PRE,25%
same,inhibition at 50 g/ha,SETFA,25%
"CCC(CC)Nc1c([N+](=O)[O-])cc(C)c(C)c1[N+](=O)[O-] [Pendimethalin, pendimethalin]",inhibition at 200 g/ha,"Abutilon theophrasti [1]; Abutilon theophrasti, pre-emergence, PRE, ABUTH, use rate 200 gai/ha",65%
same,inhibition at 200 g/ha,"Galium aparine; Galium aparine, pre-emergence",0%
same,inhibition at 800 g/ha,"Galium aparine; Galium aparine, pre-emergence, use rate 800 gai/ha",10%
same,inhibition at 800 g/ha,"Polygonum convolvulus; Fallopia convolvulus, pre-emergence, use rate 800 gai/ha",70%
same,inhibition at 200 g/ha,"Lolium multiflorum; Lolium multiflorum, pre-emergence, PRE, LOLMU",0%
same,inhibition at 200 g/ha,"Commelina benghalensis [2]; PRE, COMBE, use rate 200 gai/ha",40%
same,inhibition at 800 g/ha,"Commelina benghalensis [2]; PRE, COMBE, use rate 800 gai/ha",50%
"CCCOCCN(C(=O)CCl)c1c(CC)cccc1CC [Pretilachlor, pretilachlor]",inhibition at 25 g/ha,"Brachiaria decumbens; PRE, BRADC, use rate 25 gai/ha",0%
same,inhibition at 200 g/ha,"Brachiaria decumbens; PRE, BRADC",40%
same,inhibition at 25 g/ha,"Euphorbia heterophylla; Euphorbia heterophylla, pre-emergence, PRE, EPPHL, use rate 25 gai/ha",0%
same,inhibition at 200 g/ha,"Euphorbia heterophylla; Euphorbia heterophylla, pre-emergence, PRE, EPPHL",10%
same,inhibition at 200 g/ha,"Galium aparine; Galium aparine, pre-emergence",15%
same,inhibition at 25 g/ha,"Polygonum convolvulus; Fallopia convolvulus, pre-emergence, use rate 25 gai/ha",0%
same,inhibition at 200 g/ha,"Polygonum convolvulus; Fallopia convolvulus, pre-emergence, use rate 200 gai/ha",30%
same,inhibition at 25 g/ha,"Lolium multiflorum; Lolium multiflorum, pre-emergence, PRE, LOLMU, use rate 25 gai/ha",0%
same,inhibition at 200 g/ha,"Geranium pusillum [3]; PRE, GERPU",45%
"C#CCN(C)c1c(C#N)cnn1-c1nn2c(c1Cl)CCCC2 [Pyraclonil, pyraclonil]",% activity,Ambrosia artemisiifolia; use rate 12.5 gai/ha,0%
same,% activity,AMAPA [4],50%
same,% activity,"Lolium multiflorum; PRE, use rate 12.5 gai/ha, 20 DAT",0%
same,% activity,AMAPA [5],90%
"CC(C)N(C)S(=O)(=O)NC(=O)c1cc(-n2c(=O)cc(C(F)(F)F)n(C)c2=O)c(F)cc1Cl [Saflufenacil, saflufenacil]",inhibition at 1.25 g/ha,Commelina benghalensis [6],60%
same,inhibition at 1.25 g/ha,"Abutilon theophrasti [1]; Abutilon theophrasti, pre-emergence, 480 h, PRE, ABUTH, 1.25 gai/ha, 20 DAT, read-out: % activity solo application",10%
same,inhibition at 1.25 g/ha,"Ambrosia artemisiifolia; Ambrosia artemisiifolia, pre-emergence, 480 h, AMBEL, 1.25 gai/ha, read-out: % activity solo application",0%
same,inhibition at 5 g/ha,"Ambrosia artemisiifolia; Ambrosia artemisiifolia, pre-emergence, 480 h, AMBEL, 5 gai/ha, read-out: % activity solo application",50%
same,inhibition at 5 g/ha,Digitaria sanguinalis,0%
same,inhibition at 1.25 g/ha,Amaranthus retroflexus [7]; 1.25 gai/ha,0%
same,inhibition at 5 g/ha,Amaranthus retroflexus [7]; 5 gai/ha,0%
same,inhibition at 1.25 g/ha,Amaranthus retroflexus [8],0%
same,inhibition at 1.25 g/ha,"Euphorbia heterophylla; Euphorbia heterophylla, pre-emergence, 480 h, PRE, EPHHL, 1.25 gai/ha, 20 DAT, read-out: % activity solo application",5%
same,inhibition at 5 g/ha,"Euphorbia heterophylla; Euphorbia heterophylla, pre-emergence, 480 h, PRE, EPHHL, 5 gai/ha, 20 DAT, read-out: % activity solo application",50%
same,inhibition at 1.25 g/ha,"Alopecurus myosuroides; 480 h, PRE, ALOMY, 1.25 gai/ha, 20 DAT, read-out: % activity solo application",20%
same,inhibition at 5 g/ha,"Alopecurus myosuroides; 480 h, PRE, ALOMY, 5 gai/ha, 20 DAT, read-out: % activity solo application",10%
same,inhibition at 1.25 g/ha,Echinochloa crus-galli; 1.25 gai/ha,0%
same,inhibition at 5 g/ha,Echinochloa crus-galli; 5 gai/ha,0%
same,inhibition at […],Geranium pusillum [9]; use rate 2.5 gai/ha,60%
same,inhibition at 5 g/ha,"Geranium pusillum [9]; use rate 5 gai/ha, read-out: % activity",80%
same,inhibition at 5 g/ha,Setaria viridis [10],60%
same,inhibition at 1.25 g/ha,"Lolium multiflorum; Lolium multiflorum, pre-emergence, 480 h, PRE, LOLMU, 1.25 gai/ha, 20 DAT, read-out: % activity solo application",0%
same,inhibition at 5 g/ha,"Lolium multiflorum; Lolium multiflorum, pre-emergence, 480 h, PRE, LOLMU, 5 gai/ha, 20 DAT, read-out: % activity solo application",0%
same,inhibition at 5 g/ha,"Lolium multiflorum; Lolium multiflorum, pre-emergence, 480 h, PRE, LOLMU, use rate 5 gai/ha, 20 DAT, read-out: % activity",45%
same,inhibition at 1.25 g/ha,Abutilon theophrasti [11]; 1.25 gai/ha,5%
same,inhibition at 5 g/ha,Abutilon theophrasti [11]; 5 gai/ha,10%
same,inhibition at 1.25 g/ha,"Commelina benghalensis [2]; 480 h, PRE, COMBE, 1.25 gai/ha, 20 DAT, read-out: % activity solo application",5%
same,inhibition at 1.25 g/ha,Ipomoea hederacea [12]; 1.25 gai/ha,0%
same,inhibition at 5 g/ha,Ipomoea hederacea [12]; 5 gai/ha,10%
same,inhibition at 1.25 g/ha,Setaria viridis [13]; 1.25 gai/ha,0%
same,inhibition at 5 g/ha,Setaria viridis [13]; 5 gai/ha,0%
same,inhibition at […],Ipomoea hederacea [14]; use rate 2.5 gai/ha,5%
same,inhibition at 5 g/ha,Ipomoea hederacea [14]; use rate 5 gai/ha,25%
